Experimental data reported in US20230248638A1, “A PERSONAL CARE COMPOSITION COMPRISING ATRACTYLENOLIDE-I OR A SOURCE THEREOF” (Conopco, Inc., d/b/a UNILEVER, priority 2020, published 2023).

Tested on: Normal human epidermal melanocytes (NHEM)
Experiment: Melanin content quantification in melanocytes
Type: cell-based
Details: 72 hours treatment, concentration as in Treatment column, melanin normalized to relative cell viability
Procedure: Normal human epidermal melanocytes (NHEM) (Biocell, Xi'an, China) were grown in melanocyte growth medium (MGM, Promocell, Germany) with human melanocyte growth supplement (Promocell, Germany). NHEM cells were seeded at a density of 4×10^4 cells in 500 μL MGM/well in a 24-well plate and incubated for 48 hours in an incubator (Thermo Scientific, Model 3111) at 37° C. with 5% CO2. After 48 hours, media was replaced with fresh media containing test samples (as per Table 1) for the following 72 hours.
After CCK8 absorbance readings were obtained, cells were lysed by lysis buffer at 60° C. for 1 hr. Then, 50 μL cell lysate was transferred to a new 96-well plate and absorbance was measured at 405 nm using TECAN plate reader. Serial dilutions of pure melanin were prepared as references.
The melanin content was calculated from the melanin standard curve. The melanin concentrations (μg/mL) were then normalized to the relative cell viability. The melanin inhibition rates were then calculated using the following equation: […]

SMILES | Melanin inhibition rate (% inhibition)
C=C1CCC[C@]2(C)C=C3OC(=O)C(C)=C3C[C@@H]12 [D, Atractylenolide -1] | 7.8 ± 2.80 % inhibition
CCCCCCC(O)CCCCCCCCCCC(=O)O (centres unmarked) [Example B, 12 hydroxystearic acid] | 5.6 ± 3.03 % inhibition
